Reference: US20260124223A1, “CANCER IMMUNOTHERAPIES” (Northwestern University, priority 2022, published 2026)
Several values for one entry are separate records, joined by “and”; a condition that tells them apart may be missing. Identical values can stand only once. Like-named read-outs stand apart in the source and are kept apart here.

Experiments:
[1] = Pembrolizumab concentration in plasma, glioma and peritumoral brain of GBM patients (ELISA); type: in vivo, human
Description: (§1) Patients received additional treatment cycles with sonications in an outpatient setting in which the US device was activated by percutaneous access with a single-use transdermal needle concomitantly with the injection of 10 μL/kg of IV microbubbles (DEFINITY, Lantheus, Billerica, USA) and 200 mg of pembrolizumab and 30 mg of liposomal DOX.
Determination of the concentration of pembrolizumab in human glioma and peritumoral brain tissue Two GBM patients undergoing surgery for resection of tumor with implantation of the Sonocloud-9 US device were studied for this analysis. Pembrolizumab ELISA kit (ab237652, Abcam) was employed to determine pembrolizumab concentrations. After surgical resection, all samples were weighed. […] The rest of the experiment was done following manufacturer's kit protocol.

[2] = system: brain metastases from melanoma; assay: Tumor volume in a melanoma brain metastasis patient, SonoCloud-1 (NCT04021420); type: in vivo, human
Excerpt: Analysis of SoniMel tumor volume of a brain metastatic patient. This patient was part of an ongoing clinical trial (NCT04021420) evaluating the combination of the immune checkpoint antibodies, ipilimumab and nivolumab, with BBB disruption employing the SC1 US device. The zone targeted by the skull implanted SC1 US emitter was modeled with a cylindrical region of interest (ROI) with a 10-mm diameter and 55-mm length. This ROI covered a part of the left-hemisphere tumoral mass and a part of its margin. The patient received administration every three weeks of 1 mg/kg of nivolumab (Brystol Myers Squibb) during 30 minutes of infusion and 3 mg/kg of ipilimumab (Brystol Myers Squibb) during 90 minutes of infusion prior to sonication. The SC1 US device was activated in combination with IV injection of microbubbles (0.1 mL/kg, SonoVue, Bracco) for a duration of 270 seconds at an acoustic pressure of 0.78 MPa, similar to the parameters used in a recent clinical trial in patients with recurrent GBM (Idbaih, A., et al., Clin Cancer Res 25, 3793-3801 (2019)). The evolution of the tumor volumes was evaluated for both sonicated and non-sonicated tumor masses using a semiautomatic active contour segmentation method (ITK Snap) (Yushkevich, P. A., et al., Neuroimage 31, 1116-1128 (2006)) using contrast-enhanced gadolinium T1w MR images with a threshold set at 1.25 times the median brain intensity. […]

[3] = system: recurrent GBM patients; assay: Multiplex immunofluorescence of pre-treatment and on-treatment human GBM samples; conditions: tumors exposed to DOX vs before DOX
[4] = system: GL261; assay: H-2Kb expression in GL261 cells by flow cytometry; type: cell-based, mouse; conditions: similar DOX concentration range, compared to no treatment
[5] = system: GL261-bearing mice; assay: Survival of GL261-bearing mice treated with liposomal DOX, aPD-1, US/MB; type: in vivo, mouse
Description: (§2) Ultrasound-mediated BBB opening in mouse models.
(§3) Cell lines and implantable syngeneic murine glioma models for survival and immunophenotyping studies. Murine GL261 cell line was acquired from the National Institutes of Health. CT2A cell line was acquired from Millipore. GL261 and CT2A were cultured in Dulbecco's modified Eagle's medium (Corning) supplemented with 10% FBS (Hyclone) and 1% penicillin/streptomycin (Corning) at 37° C. in incubators with humified atmosphere of 5% CO2 and 95% air.
(§4) After injection of glioma cells, the incision was closed using 9 mm stainless steel wound clips. On day 7 and 14 after IC implantation of glioma cell lines, mice were treated with liposomal DOX obtained from the pharmacy of Northwestern Memorial Hospital. On day 7, 10, 14, and 17 after IC injection of glioma cells, mice were treated with either […] of anti-mouse PD-1 (CD279) BE0146 (BioXcell) or rat IgG2a isotype control BE0089 (BioXcell).

[6] = system: CT2A-bearing mice; assay: Survival of CT2A-bearing mice treated with aPD-1, liposomal DOX, US/MB; type: in vivo, mouse
Description: as §2, §3, §4

[7] = system: HMC3 cells; assay: Flow cytometry of IFNγ, HLA ABC and PD-L1 in HMC3 cells; type: cell-based, human; conditions: 5-hour pulse, 72 hours, specific DOX concentrations
Description: (§5) Flow cytometry of PDX cell lines and HMC3 cells. PDX cell lines were kindly gifted. HMC3 cells were acquired from ATCC. GBM6, GBM63 and HMC3 cells were seeded on 6-well plates for treatment with increasing concentrations of DOX hydrochloride (D1515, Sigma Aldrich), IFN-γ (300-02, Peprotech) or 50 μM of TMZ (Accord). PDX and HMC3 cells were treated for 5 hours followed by 3 washes with PBS and cultured afterwards with Dulbecco's modified Eagle's medium (Corning) supplemented with 10% FBS (Hyclone) and 1% penicillin/streptomycin (Corning). 72 hours after treatment, PDX cells were harvested using Accutase cell detachment solution (Corning) and were stained initially with eBioscience Fixable Viability Dye eFluor 780 (Thermo Fisher) at 1:1000 dilution. Staining with HLA ABC AF-647 (311414) and HLA-DR BV421 (307636) was done for PDX cells. IFN-γ AF-700 (502520), HLA ABC FITC (311404), PD-L1 Pe-Cy7 (374506). All antibodies for this experiment were from Biolegend. Data was acquired using BD FACSymphony Flow Cytometer.

[8] = system: GBM63; assay: Flow cytometry of antigen-presenting molecules in PDX cell line GBM63; type: cell-based, human; conditions: 5 hours exposure, 72 hours drug-free
Description: as §5

[9] = DOX concentration in blood, tumor and peritumoral brain tissue of GBM patients (LC/MS); type: in vivo, human; conditions: for concentration at 48 h: human, intravenous, GBM patients, 48 hours after liposomal DOX with US/MB
Description: as §1
Determination of the DOX concentration in blood, tumor and peritumoral brain tissue. Two GBM patients undergoing surgery for resection of tumor with implantation of the Sonocloud-9 US device were studied for this analysis. […] Sonicated and non-sonicated peritumoral brain samples were identified taking into account their location relative to the sonication field of the US device. Non-sonicated peritumoral brain samples were acquired first with the use of a new set of surgical instruments for each sample. Every peritumoral brain tissue was washed with saline solution to remove blood. These samples were sectioned into 30 mg pieces and were flash-frozen for further quantification of DOX levels. DOX was quantified in tumor, peritumoral, and plasma using LC/MS (6500 QTRAP AB Sciex equipped with a SIL-20AC XR HPLC, Shimadzu Scientific Instruments).

[10] = system: HMC3; assay: FCGR3A / FcγRIIIA expression in HMC3 cells (qRT-PCR, flow cytometry); type: cell-based, human; conditions: DOX 5 hours, fresh media 72 hours
Description: as §5

[11] = system: GL261-bearing mice; assay: Immunophenotyping of GL261-bearing mice treated with increasing doses of liposomal DOX with or without US/MB; type: in vivo, mouse; conditions: 1 and 2 mg/kg; 5 mg/kg without US/MB
Description: as §2, §4

[12] = system: GBM6; assay: Flow cytometry of antigen-presenting molecules in PDX cell line GBM6; type: cell-based, human; conditions: 5 hours exposure, 72 hours drug-free, relative to no treatment
Description: as §5

[13] = system: CT2A; assay: H-2Kb expression in CT2A cells by flow cytometry; type: cell-based, mouse; conditions: similar DOX concentration range, compared to no treatment
[14] = system: recurrent GBM patients; assay: Multiplex immunofluorescence of FcγRIIIA on TAMs, pre-DOX and during-DOX GBM samples; type: in vivo, human; conditions: DOX+aPD-1 with concomitant LIPU/MB, vs tissue before treatment, 4 patients
Excerpt: Multiplex immunofluorescence staining/cellular identification and phenotyping. The multiplex panel included the following unconjugated antibodies: GFAP (glioma cells), CD11c (antigen presenting cells), CD68 (pan monocyte/macrophage), CD163 (macrophage scavenger receptor), FcγRIIIA (Receptor binding the Fc region of IgG, CD16A). All antibodies were validated using conventional immunofluorescence (IF) staining in conjunction with the corresponding fluorophore and the spectral 4′,6-diamidino-2-pheynlindole (DAPI; ThermoFisher Scientific) counterstain. For optimal concentration and best signal/noise ratio all antibodies were tested at three different dilutions, starting with the manufacturer-recommended dilution (MRD), then MRD/2 and MRD/4. Secondary Alexa fluorophore 555 (ThermoFisher Scientific) and Alexa fluorophore 647 (ThermoFisher Scientific) were used at 1/200 and 1/400 dilutions respectively. […]
Slides are automatically scanned using the Lunaphore COMET™ with fluorescent high-power field scan (20× magnification microscope). […] The OME.TIFF images ware analyzed in Visiopharm software for immune populations' configuration and quantification.
All digitized images were analyzed using the Visiopharm software platform (Hørsholm, Denmark). […]

[15] = system: GL261 tumor-bearing mice; conditions: LIPU/MB+IC+DOX
Description: Cell culture. […] Both cell lines were cultured in Dulbecco's modified Eagle's medium (Gibco) supplemented with 10% fetal bovine serum (Gibco), and 1% penicillin/streptomycin (Gibco) in 5% CO2 incubators at 37° C. […] QPP4 cells were maintained in Dulbecco's modified Eagle's medium/F-12 (Gibco) supplemented with B-27 (Gibco), recombinant epidermal growth factor (EGF, 20 ng/ml, PeproTech), and recombinant basic fibroblast growth factor (bFGF, 20 ng/ml, PeproTech).
Animal Experiments. […] All murine cell lines used for this study were routinely tested for mycoplasma and were confirmed negative before intracranial orthotopic injection. To perform intracranial injection of syngeneic murine glioma cell lines, mice were anesthetized with ketamine/xylazine cocktail. Artificial tears were used to prevent eye drying and protect the eye. […] Mice were monitored daily and were euthanized when they approached the endpoint (weight loss is >20% of pre-treatment body weight or loss of mobility or severe neurological disabilities such as seizure, circular motion, etc.) as described in the IACUC protocol.
LIPU/MB. […] Sonications were performed for 120 seconds using a 25,000-cycle burst at a 1 Hz pulse repetition frequency and an acoustic pressure of 0.3 MPa as measured in water. After sonications, mice were moved to a clean cage, placed upon a heating pad, and monitored until they recovered from anesthesia.

[16] = mouse, in vivo
Description: C57BL/6 mice were employed for sonication experiments in which they were anesthetized with ketamine/xylazine cocktail intraperitoneally (ketamine 100 mg/kg, xylazine 10 mg/kg).
Determination of the concentration of nivolumab in brain from C57BL/6 mice. Non-tumor bearing C57BL/6 mice were used for this experiment. […] Nivolumab ELISA kit (ab237651, Abcam) was employed to determine nivolumab concentrations in the brain and blood. Mice were anesthetized with ketamine/xylazine cocktail and treated with artificial tears once fully anesthetized. Next, mice were treated with nivolumab through retro-orbital route. The dose used for mice was calculated based on allometric scaling which considers the animal equivalent dose based on body surface area converted from the human dose of 3 mg/kg of nivolumab (Nair, A. B. et al., J Basic Clin Pharm 7, 27-31 (2016)). After treatment with nivolumab, mice were placed in the US transducer holder for sonication as described above. Intravenous NaFI (Sigma-Aldrich) previously dissolved in PBS was administered immediately after sonication at a dose of 20 mg/kg in 100 μL. 1 and 4 hours after sonication, mice were euthanized using a CO2 chamber and brains were harvested and placed in PBS. […] Absorbance of samples (set to 450 nm) was read in Cytation 5 multi-mode reader (Biotek). […]

pembrolizumab: anti-PD-1 antibody
fold increase in pembrolizumab concentration, sonicated vs non-sonicated peritumoral brain regions ([1]; 2 GBM patients, SonoCloud-9): 2.076 fold
anti-PD-1 antibody concentration in the serum ([1]; two GBM patients, 48 hours after treatment): 39.450 µg/mL and 45.099 µg/mL

ipilimumab: IgG1 anti-CTLA-4 antibody, given with nivolumab
tumor mass targeted by the SonoCloud-1 (sonicated) ([2]; ipilimumab 3 mg/kg and nivolumab 1 mg/kg prior to sonication): began to shrink after the second sonication
non-sonicated tumor mass ([2]; ipilimumab 3 mg/kg and nivolumab 1 mg/kg, until GammaKnife on day 130): continued to grow

COc1cccc2c1C(=O)c1c(O)c3c(c(O)c1C2=O)C[C@@](O)(C(=O)CO)C[C@@H]3O[C@H]1C[C@H](N)[C@H](O)[C@H](C)O1 [DOX, Doxorubicin]
TMEM119+ cells expressing HLA I ([3]; P=0.0092): increased number
CD163+ cells expressing HLA I ([3]; P=0.0712): increased number
H-2Kb expression [4]: upregulated
percentage of CD4 IFN-γ+ TNF-α+ T cells ([5]; DOX alone vs control, P=0.04): higher percentage
long-term survivors ([5]; GL261, anti-PD-1 antibody added to DOX plus US/MB, vs DOX plus US/MB): same percentage of long-term survivors
survival in Cd8−/− and Cd8+/+ mice ([6]; DOX plus anti-PD-1 antibody with US/MB, P=0.0452): survival benefit was only observed in mice that had intact immunity
long-term survival percentage ([6]; anti-PD-1 antibody added to DOX plus US/MB): 80%
expression of HLA ABC [7]: promoted
expression of PD-L1 [7]: promoted
production of IFNγ [7]: promoted
DOX concentration range that upregulated HLA ABC and HLA-DR expression [8]: 0.15 to 0.6 M
fold increase in DOX concentration, sonicated relative to non-sonicated peritumoral brain samples ([9]; 2 GBM patients, 48 hours, 95% CI of mean 1.406-2.659): 2.033 fold
concentration at 48 h ([9]; plasma, read-out: DOX plasma levels): 8230 ng/mL and 14.2 µM
concentration at 48 h ([9]; tumor, read-out: DOX tumor concentrations): 146 ng/g to 2290 ng/g and 251 nM to 3.94 µM
FCGR3A expression, times higher than in untreated microglia [10]: ~16 times
IFN-γ by glioma-associated myeloid cells [11]: no other doses of DOX nor the 5 mg/kg of dose delivered in the absence of US/MB elicited IFN-γ
DOX concentration range that upregulated HLA ABC and HLA DR expression [12]: 0.15 to 1.2 M
H-2Kb expression [13]: upregulated
frequency of FcγRIIIA+ CD68+ and CD11c+ TAMs [14]: increase in the frequency
long-term survivors [15]: 16.7%

nivolumab: human IgG4 antibody that binds the PD-1 receptor
nivolumab concentration in the plasma [16]: similar
